Laboratory results: patent US6034066A, “Cysteine protease inhibitors for use in treatment of IGE mediated allergic diseases” (Peptide Therapeutics Limited, priority 1995, dated 2000)

Target: T1, Der p I (Dermatophagoides pteronyssinus, UniProt P08176)
T1 construct: tissue SmithKline-Beecham (crude mite extract); host or cells: house dust mite extract, purified on immobilised anti-Der p I antibody 4C1
T1 sequence (P08176 99-320): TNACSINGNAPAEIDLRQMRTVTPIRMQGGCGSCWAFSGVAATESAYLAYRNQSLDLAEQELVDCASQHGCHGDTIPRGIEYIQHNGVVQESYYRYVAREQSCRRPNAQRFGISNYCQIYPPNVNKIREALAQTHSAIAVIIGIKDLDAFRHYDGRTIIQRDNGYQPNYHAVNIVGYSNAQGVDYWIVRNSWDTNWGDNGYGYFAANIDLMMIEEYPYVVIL
Experiment: Inhibition (inactivation) kinetics of Der p I, fluorogenic substrate assay
Assay type: biochemical
Conditions: second order inactivation rate constant; 50 mM potassium phosphate pH 8.25, 1 mM EDTA, 1 mM DTT, 25° C.; purified Der p I
Method: All Der-p I enzyme assays were routinely carried out in 50 mM potassium phosphate; pH 8.25 containing 1 mM ethylenediaminetetraaceticacid (EDTA) and 1 mM dithiothreitol (DTT). Product formation was monitored with respect to time by measuring the increase in fluorescence emission at 420 nm and exciting at 320 nm. All assays were carried out at 25° C. Stock solutions of the various substrates and/or inhibitors were made up in 100% dimethylsulphoxide (DMSO).
The reaction of enzyme and inhibitor is comprised of two steps. The first is binding of enzyme and inhibitor to produce the enzyme inhibitor complex (E.I). This step is assumed to be rapid and reversible, relative to the other steps, and no chemical reaction occurs. In this case k1 is the second order rate constant for the formation of the E.I complex and k-1 is the first order rate constant for the breakdown of the E.I. The second step in the process, occurring at a rate k2, is the formation of the enzyme-inhibitor covalent complex (EI) resulting in irreversible inactivation of the enzyme.
The practice of inactivation kinetics of enzymes have been described by two standard accepted methods (Schemes 1 and 2). The first (Scheme 1) is the dilution method described by Kitz, C. G. and Wilson, I. B., (1962), J. Biol. Chem., 237, 3245-3249. In this case enzyme and inhibitor are pre-incubated for a set period of time prior to quenching of this reaction by the addition of an excess of substrate. The second method (Scheme 2), is monitoring enzyme inactivation in the presence of substrate and irreversible inhibitors. This method has been described previously (Tian, W. -X. & Tsou, C. -L, (1982), Biochemistry, 21, 1028-1032; Morrison, J. F. & Walsh, C. T., (1988), Adv. Enzymol. Relat. Areas Mol. Biol., 61, 201-301) and the equations describing the kinetics are shown below (Eq. 1, 2 and 3). In both cases the inhibitor concentration employed is at least 10 times greater than the enzyme concentration in order to maintain pseudo-first order conditions.
kapp =k2 [I]/1+[S]/KM [I]+K1) Eq. 1
[Product]=vs t+(v0 -v5)[1-exp(-kapp t)]/kapp +dEq.
second order rate constant=(kapp /[I])(1+[S]/KM) Eq. 3
The apparent inactivation rate constant (kapp) was calculated using Eq. 2; where vo is the initial velocity of the reaction, vs is asymptotic steady-state velocity of the reaction, d is the intercept at time zero. The second order rate was calculated using Eq. 3.
Assays were routinely carried out in 50 mM potassium phosphate; pH 8.25 containing 1 mM ethylenediaminetetraaceticacid (EDTA) and 1 mM dithiothreitol (DTT). The fluorogenic substrate was 2-aminobenzoylvalylalanylnorleucylseryl-(3-nitro)tyrosinyl aspartylamide. Product formation was monitored with respect to time by measuring the increase in fluorescence emission at 420 nm and exciting at 320 nm. Assays were carried out at 25° C. Stock solutions of the various inhibitors were made up in 100% dimethylsulphoxide.
Inactivation kinetics for various inhibitors were carried out using the techniques already described. In the dilution method, generally 100 nM Der p I was mixed and incubated with 0.5-10 uM of the inhibitor and aliquots were taken out at given time points (sampling time) and the residual enzyme activity determined by a ten-fold dilution into assay buffer containing saturating amounts of substrate. The residual activity was related to the sampling time and the curve fitted by computational non-linear least square regression analysis. In cases where the second order rate constants were greater than 10^5 M^-1 s^-1, second order conditions were employed (i.e. equimolar amounts of enzyme and inhibitor). Generally stoichiometric amounts of enzyme and inhibitor were incubated for given time intervals (sampling time) and the reaction stopped by a ten-fold dilution of this mixture by saturating amounts of substrate in assay buffer. […]

**Q.** `CCCC[C@H](NC(=O)[C@H](C)NC(=O)[C@@H](NC(=O)c1ccccc1)C(C)C)C(=O)COC(=O)c1c(C(F)(F)F)cccc1C(F)(F)F` [Compound 3, N-Benzoyl-L-valyl-L-alanyl-L-norleucine 2,6-bis (trifluoromethyl)benzoyloxymethyl ketone] was tested. Which “kobs /[I]” value did it give?
**A.** > 10^7 M^- s^-1

**Q.** How did the “kobs /[I]” value turn out when `CCCC[C@H](NC(=O)[C@H](C)NC(=O)[C@@H](NC(=O)c1ccccc1)C(C)C)C(=O)COC(=O)c1c(C)cccc1C` [Compound 4, N-Benzoyl-L-valyl-L-alanyl-L-norleucine 2,6-dimethyl benzoyloxy methyl ketone] was run?
**A.** 1.6 × 10^7 M^- s^-1

**Q.** Which “kobs /[I]” value does the source give for `CCCC[C@H](NC(=O)[C@H](C)NC(=O)[C@@H](NC(=O)c1ccccc1)C(C)C)C(=O)COC(=O)c1c(Cl)cccc1Cl` [Compound 6, N-Benzoyl-L-valyl-L-alanyl-L-norleucine 2,6-dichlorobenzoyloxymethyl ketone] here?
**A.** 6.8 × 10^7 M^- s^-1

**Q.** Which “kobs /[I]” value does the source give for `CCCC[C@H](NC(=O)[C@H](C)NC(=O)[C@@H](NC(=O)c1ccccc1)C(C)C)C(=O)COC(=O)c1ccccc1` [Compound 7, N-Benzoyl-L-valyl-L-alanyl-L-norleucine benzoyloxymethyl ketone] here?
**A.** 3.7 × 10^5 M^- s^-1

**Q.** Which “kobs /[I]” value does the source give for `CCCC[C@H](NC(=O)[C@H](C)NC(=O)[C@@H](NC(=O)c1ccccc1)C(C)C)C(=O)COC(=O)c1c(F)c(F)c(F)c(F)c1F` [Compound 8, N-Benzoyl-L-valyl-L-alanyl-L-norleucine 2,3,4,5,6-pentafluoro benzoyloxy methyl ketone] here?
**A.** > 10^7 M^- s^-1

**Q.** How did the “kobs /[I]” value turn out when `CCCC[C@H](NC(=O)[C@H](C)NC(=O)[C@@H](NC(=O)c1ccccc1)C(C)C)C(=O)COC(=O)[C@@H](COC(C)(C)C)NC(=O)OCc1ccccc1` [Compound 10, N-Benzoyl-L-valyl-L-alanyl-L-norleucine N-(-benzyloxycarbonyl)-D-serinyl-(O-tert-butyl)oxymethyl ketone] was run?
**A.** 1.9 × 10^5 M^- s^-1

**Q.** Which “kobs /[I]” value does the source give for `CCCC[C@H](NC(=O)[C@H](C)NC(=O)[C@@H](NC(=O)c1ccccc1)C(C)C)C(=O)COC(=O)[C@@H](CO)NC(=O)OCc1ccccc1` [Compound 11, N-Benzoyl-L-valyl-L-alanyl-L-norleucine N(-benzyloxycarbonyl)-D-serinyloxy methyl ketone] here?
**A.** 1.2 × 10^6 M^- s^-1

**Q.** How did the “kobs /[I]” value turn out when `CCCC[C@H](NC(=O)[C@H](C)NC(=O)[C@@H](NC(=O)c1ccccc1)C(C)C)C(=O)COC(=O)c1c(Cl)cccc1Cl` [Compound 13, N-Benzoyl-L-valyl-L-alanyl-L-norleucine 2,6-dichlorophenylacyloxy methyl ketone] was run?
**A.** 6.6 × 10^5 M^- s^-1

**Q.** `CCCC[C@H](NC(=O)[C@H](C)NC(=O)[C@@H](NC(=O)c1ccccc1)C(C)C)C(=O)NOC(=O)c1ccccc1` [Compound 15, N-(Benzoyl amino-L-valyl-L-alanyl-L-norleucyl)-O-benzoyl hydroxamate] was tested. Which “kobs /[I]” value did it give?
**A.** 1.5 × 10^5 M^- s^-1

**Q.** Which “kobs /[I]” value does the source give for `CCCC[C@H](NC(=O)[C@H](C)NC(=O)[C@@H](NC(=O)c1ccccc1)C(C)C)C(=O)NOC(=O)c1c(C)cccc1C` [Compound 16, N-(N-benzoyl-L-valyl-L-alanyl-L-norleucyl)-O-2,6-dimethyl-benzoyl hydroxamate] here?
**A.** 1.6 × 10^4 M^- s^-1

**Q.** For `CCOC(=O)/C=C/[C@H](CC(C)C)NC(=O)[C@H](C)NC(=O)[C@@H](NC(=O)OC(C)(C)C)C(C)C` [Compound 23], which “kobs /[I]” value is on record?
**A.** 1.7 × 10^3 M^- s^-1

**Q.** With `CC(C)C[C@@H](/C=C/C(=O)OCC(F)(F)F)NC(=O)[C@H](C)NC(=O)[C@@H](NC(=O)OC(C)(C)C)C(C)C` [Compound 25] as the compound, how does the “kobs /[I]” value read?
**A.** 3.1 × 10^3 M^- s^-1

**Q.** How did the “kobs /[I]” value turn out when `CCOC(=O)/C=C/[C@H](CC(C)C)NC(=O)[C@H](C)NC(=O)[C@@H](NC(=O)c1ccccc1)C(C)C` [Compound 26] was run?
**A.** 4.1 × 10^3 M^- s^-1

**Q.** With `CCOC(=O)/C=C/[C@H](CC(C)C)NC(=O)[C@H](C)NC(=O)[C@@H](NC(=O)c1ccccc1C(F)(F)F)C(C)C` [Compound 27] as the compound, how does the “kobs /[I]” value read?
**A.** 6.3 × 10^3 M^- s^-1

**Q.** For `CCOC(=O)/C=C/[C@H](CC(C)C)NC(=O)[C@H](C)NC(=O)[C@@H](NC(=O)c1ccc2c(c1)OCO2)C(C)C` [Compound 28], which “kobs /[I]” value is on record?
**A.** 6.8 × 10^3 M^- s^-1

**Q.** `CCOC(=O)/C=C/[C@H](CC(C)C)NC(=O)[C@H](C)NC(=O)[C@@H](NC(=O)Nc1ccccc1)C(C)C` [Compound 29] was tested. Which “kobs /[I]” value did it give?
**A.** 4.6 × 10^3 M^- s^-1

**Q.** `CCOC(=O)/C=C/[C@H](CC(C)C)NC(=O)[C@H](C)NC(=O)[C@@H](NC(=O)N(c1ccccc1)c1ccccc1)C(C)C` [Compound 30] was tested. Which “kobs /[I]” value did it give?
**A.** 7.5 × 10^3 M^- s^-1

**Q.** `CCOC(=O)/C=C/[C@H](CC(C)C)NC(=O)[C@H](C)NC(=O)[C@@H](NC(=O)C1c2ccccc2Oc2ccccc21)C(C)C` [Compound 34] was tested. Which “kobs /[I]” value did it give?
**A.** 1.1 × 10^4 M^- s^-1

**Q.** For `CCOS(=O)(=O)/C=C/[C@H](CC(C)C)NC(=O)[C@H](C)NC(=O)[C@@H](NC(=O)OC(C)(C)C)C(C)C` [Compound 40, Ethyl(S)-(E)-3-((tert-butoxycarbonylamino-L-valyl)-L-alanyl)amino-5-methylhexenylsulfonate], which “kobs /[I]” value is on record?
**A.** 6.9 × 10^4 M^- s^-1

**Q.** “N-Benzoyl-L-valyl-L-alanyl-L-norleucine 1,1-dimethylpropyloxymethyl ketone [Compound 9]” was tested. Which “kobs /[I]” value did it give?
**A.** 2.3 × 10^4 M^- s^-1

**Q.** For “N-Benzoyl-L-valyl-L-alanyl-L-norleucine 2-furanoxy methyl ketone [Compound 12]”, which “kobs /[I]” value is on record?
**A.** 1.9 × 10^5 M^- s^-1

Same assay, conditions: second order inactivation rate constant; 50 mM potassium phosphate pH 8.25, 1 mM EDTA, 1 mM DTT, 25° C.; purified Der p I; read-out: kobs /[I]

**Q.** Which kinact/KI does the source give for `CC(C)C[C@@H](/C=C/S(=O)(=O)c1ccccc1)NC(=O)[C@H](C)NC(=O)[C@@H](NNC(=O)OC(C)(C)C)C(C)C` [Compound 36, (S)-(E)-3-((tert-butoxycarbonylamino-L-valyl)-L-alanyl)amino-1-phenylsulfonyl-5-methyl-1-hexene] here?
**A.** 6400 M⁻¹ s⁻¹

**Q.** `CC(C)C[C@@H](/C=C/S(C)(=O)=O)NC(=O)[C@H](C)NC(=O)[C@@H](NNC(=O)OC(C)(C)C)C(C)C` [Compound 38, (S)-(E)-3-((tert-butoxycarbonylamino-L-valyl)-L-alanyl)amino-1-methylsulfonyl-5-methyl-1-hexene] was tested. Which kinact/KI did it give?
**A.** 1100 M⁻¹ s⁻¹
